Seven molecules from patent publication US10751396B2, “Early hyperlipidemia promotes endothelial activation via a caspase-1-sirtuin 1 pathway” (Temple University—Of The Commonwealth System of Higher …, priority 2015, dated 2020) can be followed below.

Residues, ends and D or L forms follow the SMILES beside them. *: point of attachment. Cbz = O=C(OCc1ccccc1)*

Holding throughout (assay type): cell-based, human
In one assay the test system is caspase-1. Kind of assay: Caspase-1 activity assay (FAM-YVAD-FMK, flow cytometry) in HAECs. As to conditions: for oxLDL-induced caspase-1 activation with ROS inhibitors: Allopurinol 1 mmol/L, Apocynin 100 μM added 1 hour before oxLDL (100 μg/mL) 6 hours. The method, then: (§1) Active caspase-1 level was determined with APO LOGIX kit (Cell Tech., Mountain View, Calif.). The kit contains a carboxyfluorescein (FAM) [Excitation/Emission (nm):490/520]-labeled peptide fluoromethyl ketone (FMK) caspase-1 inhibitor (FAM-YVAD-FMK), which irreversibly binds to active caspase-1. All procedures were performed according to the manufacturer's instruction. Briefly, HAECs (≤passage 9) were cultured in 6-well plates and serum starved overnight to quiescent the cells before treatment. Next day, HAECs were treated with indicated stimuli for 6 hr. Cells were then digested by trypsin-EDTA and suspended at 1×10^6 cells/ml. 150 μl of cell suspension were incubated at 37° C. with 1× FAM-YVAD-FMK for 1 hour then washed with 1× washing buffer. Unfixed caspase-1 stained cells were then incubated with 7-aminoactinomycin D (7-AAD; cell membrane integrity marker) (BD Pharmingen, San Diego, Calif.) for no more than 10 min before analysis. The Calibur flow cytometer (BD Biosciences, San Jose, Calif.) was used to determine caspase-1 active (Caspase-1^+) and 7-AAD^+ cells. Data were analyzed with the FlowJo software (Tree Star, Ashland, Oreg.).
Active caspase-1 levels were determined with an APO LOGIX kit (Cell Technology, Mountain View, Calif.). The kit contained a carboxyfluorescein (FAM) (excitation/emission (nm): 490/520)-labeled peptide fluoromethyl ketone (FMK) caspase-1 inhibitor (FAM-YVAD-FMK), which irreversibly binds to active caspase-1. The procedures were performed according to the manufacturer's instructions. HAECs were cultured in 6-well dishes and serum-starved overnight to ensure quiescence of the cells before treatment. The next day, HAECs were treated with the indicated stimuli for 6 h. Cells were harvested and suspended at 1×10^6 cells/ml. The cell suspension (150 μl) was incubated in 37° C. with 1× FAM-YVAD-FMK for 1 h. After being washed with 1× washing buffer, the cells were fixed with fixative buffer and stored in 4° C. for up to 24 h. To determine the cell membrane integrity, the unfixed cells were stained with 7-AAD (Pharmingen) (0.25 μg/test) and incubated for no more than 10 min before analysis.
All flow cytometric data were analyzed by using the FlowJo software (Tree Star, Ashland, Oreg.). The uncompensated data were collected from the flow cytometer (either FACSCalibur flow cytometer or LSRII flow cytometer; BD Biosciences). Forward and side scatter gates were used to select live cell populations from clumps and debris. The positive gating was determined by its matched IgG control, and single staining was used to determine the compensation parameter. Different gates were established to analyze the data according to cell size as described in our figures.

A further assay has as its system Sirt1. The experiment in a line: Sirt1 cleavage in oxLDL-treated HAECs by Western blot. Conditions: agent added 1 hour before oxLDL (100 μg/mL, 24 hours). The text has this:
FIG. 8, comprising FIG. 8A through FIG. 8C, depicts experimental results showing hyperlipidemia/dyslipidemia decreases sirtuin 1 (Sirt1) expression in ApoE^−/− mouse aorta and induces Sirt1 cleavage in human aortic endothelial cells (ECs) through caspase-1 (casp-1) activation. FIG. 8A depicts Casp-1 deficiency results in Sirt1 accumulation in mouse aorta in ApoE^−/−/Casp-1^−/− mice. ApoE^−/− mice and ApoE^−/−/Casp-1^−/− mice were fed with a high fat (HF) diet for 3 weeks. Mouse aortic tissues were collected for uncleaved Sirt1 protein expression analysis by Western blot with the specific antibody (left panel). The quantification of Sirt1 expression in the Western blot was presented after normalized with the expression of β-actin in the same sample (right panel). FIG. 8B depicts oxidized low-density lipoprotein (OxLDL) induces Sirt1 cleavage in human aortic endothelial cells (HAECs). HAECs were cultured and treated with oxLDL (100 μg/mL) for 24 hours. […] The protein lysates were collected, and cleaved-Sirt1 expression was determined by Western blot with anti-Sirt1 antibody. The relative changes of Sirt1 expression normalized by β-actin (ratios) were calculated based on the ratios of Sirt1 expression levels in treated samples over that in nontreated samples. […]

The subject of assay [1] is alpha actin and calponin RNA transcripts in HAVSMCs. The experiment in a line: Contractile marker RNA in HAVSMCs exposed to uremic serum (quantitative RT-PCR). Conditions: HAVSMC, 10% pooled CKD sera 24 hours, compared to non-treated controls. The method, then:
FIG. 29 depicts experimental results showing the exposure of human aortic vascular smooth muscle cells (HAVSMCs) to uremic serum decreases the expression of contractile marker RNA transcripts, which is reversed by the inhibition of caspase-1. HAVSMCs were grown to sub-confluence and were serum starved for 24 hours and exposed to 10% pooled uremic sera from CKD patients (CKD PS) with and without Caspase-1 Inhibitor (Casp1 inh) for another 24 hours. The RNA was extracted, was reverse transcribed into cDNA, and the expression of smooth muscle contractile marker RNA transcripts (alpha actin and calponin) was measured by quantitative RT-PCR using the Applied Biosystems 7500, Taqman primers and probes. The relative quantification of gene RNA expression is presented after being normalized with the expression of a house-keeping gene. *P value<0.005.
Blood samples were obtained from 6 healthy donors with normal kidney function and 20 patients with end stage renal disease who were on hemodialysis. […]
Total RNA from cultured cells was extracted using the RNeasy kit (Qiagen, Valencia, Calif.), and cDNA was synthesized with the VILO first-strand synthesis system (Invitrogen, Grand Island, N.Y.). […] Relative gene expression levels were calculated after normalization with the internal control eukaryotic 18S gene using the 2^−deltadeltaCt method, where Ct is the threshold value.

The next assay concerns HAECs. Kind of assay: Caspase-1/7-AAD co-staining for pyroptosis in HAECs. As to conditions: HAECs, 6-hour stimulation; oxLDL 100 μg/mL, LPA 100 μM, LPC 15 μM. How it is done: FIG. 7, comprising FIG. 7A through FIG. 7D, depicts experimental results showing Oxidized low-density lipoprotein (oxLDL) and its components induce caspase-1 (casp-1) activation in human aortic endothelial cells (HAECs) via a reactive oxygen species (ROS)-mediated p-athway. FIG. 7A depicts pyroptotic cell death in HAECs caused by activation of casp-1 induced by oxLDL and its components. HAECs were cultured and treated with low-density lipoprotein (LDL; 100 μg/mL), oxLDL (100 μg/mL), oxLDL-derivatives lysophosphatidic acid (LPA, 100 μM), or lysophosphatidylcholine (LPC, 15 μM) as indicated for 6 hours. Casp-1 activity was determined by a commercial kit, and 7-aminoactinomycin D (7-AAD) fluorescence dye was used to determine the cell membrane integrity. Casp-1^+/7-AAD^+ cells were gated as pyrototic cells (Q3), casp-1^+ single positive cells (Q2) were gated as inflammatory cells, and 7-AAD^+ single positive cells (Q4) were gated as necrotic cells. FIG. 7B depicts ROS levels in pyroptotic cells. ROS levels were determined by dihydroethidium (DHE) fluorescence dye staining, and the mean fluorescence intensity (MFI) of DHE^+ cell fraction was determined. […] Allopurinol (1 mmol/L) and Apocynin (100 μM) were added 1 hour before oxLDL treatment. HAECs were then treated with oxLDL (100 μg/mL) for 6 hours and stained for caspase-1 activity. FIG. 7D depicts mRNA upregulation of inflammasome components, including NLRP1 (Nod-like receptor protein 1), NLRP3 (Nod-like receptor 3), PYCARD (or ASC, inflammasome adaptor apoptosis-associated speck-like protein containing a CARD), caspase-1, and IL-1β (interleukin-1β) in HAECs treated with oxLDL. Data are expressed as mean±SE. *P<0.05, changes with statistical significance.
as §1
Active caspase-1 levels were determined with an APO LOGIX kit (Cell Technology, Mountain View, Calif.). The kit contained a carboxyfluorescein (FAM) (excitation/emission (nm): 490/520)-labeled peptide fluoromethyl ketone (FMK) caspase-1 inhibitor (FAM-YVAD-FMK), which irreversibly binds to active caspase-1. The procedures were performed according to the manufacturer's instructions. HAECs were cultured in 6-well dishes and serum-starved overnight to ensure quiescence of the cells before treatment. The next day, HAECs were treated with the indicated stimuli for 6 h. Cells were harvested and suspended at 1×10^6 cells/ml. […]

`Oc1ncnc2[nH]ncc12` [Allopurinol]: the “oxLDL-induced caspase-1 activation with ROS inhibitors” value in the assay on caspase-1 is listed as “attenuation of oxLDL-induced caspase-1 activation”.
The same measure, in the same setting: as for `COc1cc(C(C)=O)ccc1O` [Apocynin], the entry is “attenuation of oxLDL-induced caspase-1 activation”.
Turning to “RQIKIWFQNRRMKWKKGYRDNLLFGAEIITNGFHSC (N-terminal protein transduction sequence; listed as Homo sapiens) [NC-Sirt1]”, the “oxLDL-induced Sirt1 cleavage with inhibitor” value with Sirt1 is given as “dose-dependently decreases”.
With `COC(=O)C[C@H](NC(=O)[C@H](C)NC(=O)[C@@H](NC(=O)[C@H](Cc1ccc(O)cc1)NC(=O)OCc1ccccc1)C(C)C)C(=O)CF` [Z-YVAD-FMK], in assay [1], the “relative quantification of alpha-actin RNA” value is reported as 0.588 and the “relative quantification of calponin RNA” value came to 0.601.
As to `CC(C)c1cc(/C=C(\C#N)C(=O)NCCCc2ccccc2)cc(C(C)C)c1O` [SU1498], in the assay on caspase-1 (HAECs pretreated with SU1498, then LPC (30 μM) 6 h after overnight serum starvation), the “caspase-1 activation after VEGFR-2 inhibition” value is “increases caspase-1 activation”.
Turning to `CC(C)C[C@@H](C=O)NC(=O)[C@H](CC(C)C)NC(=O)[C@H](CC(C)C)NC(=O)OCc1ccccc1` [MG-132] (Cbz-Leu-Leu-Leu-aldehyde), the “oxLDL-induced Sirt1 cleavage with inhibitor” value with Sirt1 was “inhibited”.
For the molecule mono-acylsn-glycero-3-phosphate [LPA], the “caspase-1 activation in larger size of HAECs” value in the assay on caspase-1 (6 h, oxLDL (100 μM), LPA (30 μM), LPC (30 μM), large FSC gate) was 54.4%. Besides, the “caspase-1 activation in smaller size of HAECs” value with caspase-1 (6 h, oxLDL (100 μM), LPA (30 μM), LPC (30 μM), small FSC gate) is reported as 25.2%. The “induction of inflammation, pyroptosis and necrosis (caspase-1/7-AAD gating)” value in the assay with HAECs was “induced inflammation, inflammatory cell death (pyroptosis), and necrosis”.
